The values below come from ChEMBL document CHEMBL1136335, “Structure elucidation of Sch 538415, a novel acyl carrier protein synthase inhibitor from a microorganism” (Bioorg Med Chem Lett, 2003).

Test [1] can be described thus: In vitro inhibitory activity against bacterial Holo-[acyl-carrier-protein] synthase. The arrangement: species or system Staphylococcus aureus.
For the next test, the system named is Staphylococcus aureus. In words: Antibacterial activity against Staphylococcus aureus(FDA 209P strain) at a concentration of 5 ug. Format: functional.

Turning to `Cc1cc(=O)n(C)c2c1C(=O)c1c(C)cc(=O)n(C)c1C2=O` [DIAZAANTHRAQUINONE], in test [1], half-maximal inhibition (IC50) was put at 4.19 µM. Also, the Zone of inhibition in the test on Staphylococcus aureus was 12 mm.

A word on the IC50: it is the point on the concentration scale where inhibition reaches its midpoint. The low end stands for greater potency in that assay, the high end for weaker potency in that assay.
